Tests used:
Type in all cases: in vivo
[1] = test system: Spodoptera littoralis (Egyptian Cotton Leaf Worm); experiment: Example B7: Spodoptera littoralis (Egyptian cotton leaf worm), cotton leaf discs sprayed, L1 larvae; details: foliar, 72 h, application rate of 200 ppm, 3 days after infestation, L1 larvae, read-out: control in at least one of the three categories (mortality, anti-feedant effect, or growth inhibition)
Method: Cotton leaf discs were placed onto agar in 24-well microtiter plates and sprayed with aqueous test solutions prepared from 10′000 ppm DMSO stock solutions. After drying the leaf discs were infested with five L1 larvae. The samples were assessed for mortality, anti-feeding effect, and growth inhibition in comparison to untreated samples 3 days after infestation. Control of Spodoptera littoralis by a test sample is given when at least one of the categories mortality, anti-feedant effect, and growth inhibition is higher than the untreated sample.

[2] = test system: Diabrotica Balteata (Corn Root Worm); experiment: Example B1: Diabrotica balteata (corn root worm), maize sprouts sprayed, L2 larvae; details: 96 h, application rate of 200 ppm, 4 days after infestation, L2 larvae, read-out: control in at least one of the two categories (mortality or growth inhibition)
Summary of the method: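 Read-out is mortality plus growth inhibition relative to untreated controls, assessed 4 days after infestation. Sprouts resting on agar are sprayed with aqueous solutions derived from 10′000 ppm DMSO stocks and left to dry before L2 larvae (6 to 10 per well) are added.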

[3] = test system: Chilo suppressalis (Striped Rice Stemborer); experiment: Example B3: Chilo suppressalis (striped rice stemborer), artificial diet, L2 larvae; details: 144 h, application rate of 200 ppm, 6 days after infestation, L2 larvae, read-out: control in at least one of the three categories (mortality, anti-feedant effect, or growth inhibition)
Summary of the method: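 First, artificial diet was treated with aqueous solutions prepared from 10'000 ppm DMSO stocks; second, after drying, L2 larvae (6-8/well) were added; third, effects were assessed at 6 days against untreated controls, counting control when any of three categories was higher.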

[4] = test system: Plutella xylostella (Diamond Back Moth); experiment: Example B4: Plutella xylostella (diamond back moth), artificial diet, eggs, 24-well; details: 192 h, application rate of 200 ppm, 8 days after infestation, eggs, read-out: control in at least one of the two categories (mortality or growth inhibition)
Method: 24-well microtiter plates with artificial diet were treated with aqueous test solutions prepared from 10′000 ppm DMSO stock solutions by pipetting. After drying, Plutella eggs were pipetted through a plastic stencil onto a gel blotting paper and the plate was closed with it. The samples were assessed for mortality and growth inhibition in comparison to untreated samples 8 days after infestation.

CC(c1nccnc1-n1nccn1)N(C)c1ncnc2c(Cl)cc(C(F)(F)F)cc12 (stereo not shown) [P.102, 8-chloro-N-methyl-N-[1-[3-(triazol-2-yl)pyrazin-2-yl]ethyl]-6-(trifluoromethyl)quinazolin-4-amine]
≥ 80%: percent control (mortality, anti-feedant effect or growth inhibition) at 200 ppm [1] | percent control (mortality or growth inhibition) at 200 ppm [2] | percent control (mortality, anti-feedant effect or growth inhibition) at 200 ppm [3] | percent control (mortality or growth inhibition) at 200 ppm [4]

CC(c1nccnc1-n1nccn1)N(C)c1ncnc2c(C(F)(F)F)cc(C(F)(F)F)cc12 (stereo not shown) [P.103, N-methyl-N-[1-[3-(triazol-2-yl)pyrazin-2-yl]ethyl]-6,8-bis(trifluoromethyl)quina-zolin-4-amine]
≥ 80%: percent control (mortality, anti-feedant effect or growth inhibition) at 200 ppm [1] | percent control (mortality or growth inhibition) at 200 ppm [2] | percent control (mortality, anti-feedant effect or growth inhibition) at 200 ppm [3] | percent control (mortality or growth inhibition) at 200 ppm [4]

CC(c1nccnc1-n1nccn1)N(C)c1ncnc2c(Br)cc(C(F)(F)F)cc12 (stereo not shown) [P.104, 8-bromo-N-methyl-N-[1-[3-(triazol-2-yl)pyrazin-2-yl]ethyl]-6-(trifluoromethyl)quinazolin-4-amine]
≥ 80%: percent control (mortality, anti-feedant effect or growth inhibition) at 200 ppm [1] | percent control (mortality or growth inhibition) at 200 ppm [2] | percent control (mortality, anti-feedant effect or growth inhibition) at 200 ppm [3] | percent control (mortality or growth inhibition) at 200 ppm [4]

CC(c1nccnc1-n1nccn1)N(C)c1ncnc2c(C(F)(F)F)cc(Br)cc12 (stereo not shown) [P.105, 6-bromo-N-methyl-N-[1-[3-(triazol-2-yl)pyrazin-2-yl]ethyl]-8-(trifluoromethyl)quinazolin-4-amine]
≥ 80%: percent control (mortality, anti-feedant effect or growth inhibition) at 200 ppm [1] | percent control (mortality or growth inhibition) at 200 ppm [2] | percent control (mortality, anti-feedant effect or growth inhibition) at 200 ppm [3] | percent control (mortality or growth inhibition) at 200 ppm [4]

CC(c1nccnc1-c1ncccn1)N(CC1CC1)c1ncnc2c(C(F)(F)F)cc(C(F)(F)F)cc12 (stereo not shown) [P.108, N-(cyclopropylmethyl)-N-[1-(3-pyrimidin-2-ylpyrazin-2-yl)ethyl]-6,8-bis(trifluoromethyl)quina-zolin-4-amine]
≥ 80%: percent control (mortality, anti-feedant effect or growth inhibition) at 200 ppm [1] | percent control (mortality or growth inhibition) at 200 ppm [2] | percent control (mortality, anti-feedant effect or growth inhibition) at 200 ppm [3] | percent control (mortality or growth inhibition) at 200 ppm [4]

CC(Nc1ncnc2c(C(F)(F)F)cc(C(F)(F)F)cc12)c1nccnc1-c1ccc(OC(F)F)cn1 (stereo not shown) [P.109, N-[1-[3-[5-(difluoromethoxy)-2-pyridyl]pyrazin-2-yl]ethyl]-6,8-bis(trifluoromethyl)quina-zolin-4-amine]
≥ 80%: percent control (mortality, anti-feedant effect or growth inhibition) at 200 ppm [1] | percent control (mortality or growth inhibition) at 200 ppm [2] | percent control (mortality, anti-feedant effect or growth inhibition) at 200 ppm [3] | percent control (mortality or growth inhibition) at 200 ppm [4]

CC(c1nccnc1-c1ccc(OC(F)F)cn1)N(C)c1ncnc2c(C(F)(F)F)cc(C(F)(F)F)cc12 (stereo not shown) [P.110, N-[1-[3-[5-(difluoromethoxy)-2-pyridyl]pyrazin-2-yl]ethyl]-N-methyl-6,8-bis(trifluoromethyl)quina-zolin-4-amine]
≥ 80%: percent control (mortality, anti-feedant effect or growth inhibition) at 200 ppm [1] | percent control (mortality or growth inhibition) at 200 ppm [2] | percent control (mortality, anti-feedant effect or growth inhibition) at 200 ppm [3] | percent control (mortality or growth inhibition) at 200 ppm [4]

CC(Nc1ncnc2c(Br)cc(C(F)(F)F)cc12)c1nccnc1-c1ccc(OC(F)F)cn1 (stereo not shown) [P.111, 8-bromo-N-[1-[3-[5-(difluoromethoxy)-2-pyridyl]pyrazin-2-yl]ethyl]-6-(trifluoromethyl)quinazolin-4-amine]
≥ 80%: percent control (mortality, anti-feedant effect or growth inhibition) at 200 ppm [1] | percent control (mortality or growth inhibition) at 200 ppm [2] | percent control (mortality, anti-feedant effect or growth inhibition) at 200 ppm [3] | percent control (mortality or growth inhibition) at 200 ppm [4]

CC(c1nccnc1-c1ccc(OC(F)F)cn1)N(C)c1ncnc2c(Cl)cc(C(F)(F)F)cc12 (stereo not shown) [P.112, 8-chloro-N-[1-[3-[5-(difluroomethoxy)-2-pyridyl]pyrazin-2-yl]ethyl]-N-methyl-6-(trifluoromethyl)quinazolin-4-amine]
≥ 80%: percent control (mortality, anti-feedant effect or growth inhibition) at 200 ppm [1] | percent control (mortality or growth inhibition) at 200 ppm [2] | percent control (mortality, anti-feedant effect or growth inhibition) at 200 ppm [3] | percent control (mortality or growth inhibition) at 200 ppm [4]

CC(Nc1ncnc2c(Cl)cc(C(F)(F)F)cc12)c1nccnc1-c1ccc(OC(F)F)cn1 (stereo not shown) [P.113, 8-chloro-N-[1-[3-[5-(difluoromethoxy)-2-pyridyl]pyrazin-2-yl]ethyl]-6-(trifluoromethyl)quinazolin-4-amine]
≥ 80%: percent control (mortality, anti-feedant effect or growth inhibition) at 200 ppm [1] | percent control (mortality or growth inhibition) at 200 ppm [2] | percent control (mortality, anti-feedant effect or growth inhibition) at 200 ppm [3] | percent control (mortality or growth inhibition) at 200 ppm [4]

CC(c1nccnc1-c1ccc(OC(F)F)cn1)N(C)c1ncnc2c(Br)cc(C(F)(F)F)cc12 (stereo not shown) [P.114, 8-bromo-N-[1-[3-[5-(difluoromethoxy)-2-pyridyl]pyrazin-2-yl]ethyl]-N-methyl-6-(trifluoromethyl)quinazolin-4-amine]
≥ 80%: percent control (mortality, anti-feedant effect or growth inhibition) at 200 ppm [1] | percent control (mortality or growth inhibition) at 200 ppm [2] | percent control (mortality, anti-feedant effect or growth inhibition) at 200 ppm [3] | percent control (mortality or growth inhibition) at 200 ppm [4]

CC(Nc1ncnc2c(C(F)(F)F)cc(C(F)(F)F)cc12)c1nccnc1-c1ccc(C#N)cn1 (stereo not shown) [P.115, 6-[3-[1-[[6,8-bis(trifluoromethyl)quina-zolin-4-yl]amino]ethyl]pyrazin-2-yl]pyridine-3-carbonitrile]
≥ 80%: percent control (mortality, anti-feedant effect or growth inhibition) at 200 ppm [1] | percent control (mortality or growth inhibition) at 200 ppm [2] | percent control (mortality, anti-feedant effect or growth inhibition) at 200 ppm [3] | percent control (mortality or growth inhibition) at 200 ppm [4]

CC(c1nccnc1-c1ccc(C#N)cn1)N(C)c1ncnc2c(C(F)(F)F)cc(C(F)(F)F)cc12 (stereo not shown) [P.116, 6-[3-[1-[[6,8-bis(trifluoromethyl)quina-zolin-4-yl]-methyl-amino]ethyl]pyrazin-2-yl]pyridine-3-carbonitrile]
≥ 80%: percent control (mortality, anti-feedant effect or growth inhibition) at 200 ppm [1] | percent control (mortality or growth inhibition) at 200 ppm [2] | percent control (mortality, anti-feedant effect or growth inhibition) at 200 ppm [3] | percent control (mortality or growth inhibition) at 200 ppm [4]

CC(Nc1ncnc2c(Br)cc(C(F)(F)F)cc12)c1nccnc1-c1ccc(C#N)cn1 (stereo not shown) [P.117, 6-[3-[1-[[8-bromo-6-(trifluoromethyl)quinazolin-4-yl]amino]ethyl]pyrazin-2-yl]pyridine-3-carbonitrile]
≥ 80%: percent control (mortality, anti-feedant effect or growth inhibition) at 200 ppm [1] | percent control (mortality or growth inhibition) at 200 ppm [2] | percent control (mortality, anti-feedant effect or growth inhibition) at 200 ppm [3] | percent control (mortality or growth inhibition) at 200 ppm [4]

CC(Nc1ncnc2c(C(F)(F)F)cc(Cl)cc12)c1nccnc1-c1ccc(C#N)cn1 (stereo not shown) [P.118, 6-[3-[1-[[6-chloro-8-(trifluoromethyl)quinazolin-4-yl]amino]ethyl]pyrazin-2-yl]pyridine-3-carbonitrile]
≥ 80%: percent control (mortality, anti-feedant effect or growth inhibition) at 200 ppm [1] | percent control (mortality or growth inhibition) at 200 ppm [2] | percent control (mortality, anti-feedant effect or growth inhibition) at 200 ppm [3] | percent control (mortality or growth inhibition) at 200 ppm [4]

CC(Nc1ncnc2c(C(F)(F)F)cc(Br)cc12)c1nccnc1-c1ccc(C#N)cn1 (stereo not shown) [P.119, 6-[3-[1-[[6-bromo-8-(trifluoromethyl)quinazolin-4-yl]amino]ethyl]pyrazin-2-yl]pyridine-3-carbonitrile]
≥ 80%: percent control (mortality, anti-feedant effect or growth inhibition) at 200 ppm [1] | percent control (mortality or growth inhibition) at 200 ppm [2] | percent control (mortality, anti-feedant effect or growth inhibition) at 200 ppm [3] | percent control (mortality or growth inhibition) at 200 ppm [4]

CC(Nc1ncnc2c(C(F)(F)F)cc(Cl)cc12)c1nccnc1-c1ccc(OC(F)F)cn1 (stereo not shown) [P.120, 6-chloro-N-[1-[3-[5-(difluoromethoxy)-2-pyridyl]pyrazin-2-yl]ethyl]-8-(trifluoromethyl)quinazolin-4-amine]
≥ 80%: percent control (mortality, anti-feedant effect or growth inhibition) at 200 ppm [1] | percent control (mortality or growth inhibition) at 200 ppm [2] | percent control (mortality, anti-feedant effect or growth inhibition) at 200 ppm [3] | percent control (mortality or growth inhibition) at 200 ppm [4]

CC(c1nccnc1-c1ccc(C#N)cn1)N(C)c1ncnc2c(Cl)cc(C(F)(F)F)cc12 (stereo not shown) [P.122]
≥ 80%: percent control (mortality, anti-feedant effect or growth inhibition) at 200 ppm [1] | percent control (mortality or growth inhibition) at 200 ppm [2] | percent control (mortality, anti-feedant effect or growth inhibition) at 200 ppm [3] | percent control (mortality or growth inhibition) at 200 ppm [4]

CC(c1nccnc1-c1ccc(OC(F)F)cn1)N(C)c1ncnc2c(C(F)(F)F)cc(Cl)cc12 (stereo not shown) [P.123, 6-chloro-N-[1-[3-[5-(difluoromethoxy)-2-pyridyl]pyrazin-2-yl]ethyl]-N-methyl-8-(trifluoromethyl)quinazolin-4-amine]
≥ 80%: percent control (mortality, anti-feedant effect or growth inhibition) at 200 ppm [1] | percent control (mortality or growth inhibition) at 200 ppm [2] | percent control (mortality, anti-feedant effect or growth inhibition) at 200 ppm [3] | percent control (mortality or growth inhibition) at 200 ppm [4]
